The values that follow come from patent US6620828B2, “Thiazole compounds and pharmaceutical compositions for inhibiting protein kinases and methods for their use” (Agouron Pharmaceuticals, Inc., priority 1999, dated 2003).

Format in all cases: biochemical
The target in test [1] is T1, FL-CHK1 (Homo sapiens, UniProt O14757).
T1 construct: C-terminally His-tagged full-length human CHK1 (FL-CHK1); 6xHis (C); made in house; host or cells: baculovirus/insect cells
T1 sequence (O14757 1-476): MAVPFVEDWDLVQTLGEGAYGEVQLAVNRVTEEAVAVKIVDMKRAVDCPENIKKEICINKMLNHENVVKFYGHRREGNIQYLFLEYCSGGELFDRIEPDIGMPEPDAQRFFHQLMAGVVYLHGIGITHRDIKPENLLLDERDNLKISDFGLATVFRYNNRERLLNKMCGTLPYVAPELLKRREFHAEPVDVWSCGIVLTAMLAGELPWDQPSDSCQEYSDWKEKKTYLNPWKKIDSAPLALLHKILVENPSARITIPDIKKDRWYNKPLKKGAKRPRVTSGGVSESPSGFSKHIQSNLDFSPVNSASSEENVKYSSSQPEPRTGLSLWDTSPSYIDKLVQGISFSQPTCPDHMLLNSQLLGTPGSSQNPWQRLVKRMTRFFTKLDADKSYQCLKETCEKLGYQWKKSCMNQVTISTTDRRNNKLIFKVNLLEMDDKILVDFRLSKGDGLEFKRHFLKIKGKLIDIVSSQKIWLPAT
Description: CHK1 assay. More on the design: CHK1^b: unit not given here. Particulars: for CHK1^b: Table A combinatorial examples, footnote b not given. The source says:
CHK-1 Construct for Assay: C-terminally His-tagged full-length human CHK1 (FL-CHK1) was expressed using the baculovirus/insect cell system. It contains 6 histidine residues (6×His-tag) at the C-terminus of the 476 amino acid human CHK1. The protein was purified by conventional chromatographic techniques.
The production of ADP from ATP that accompanies phosphoryl transfer to the synthetic substrate peptide Syntide-2 ([…]) was coupled to oxidation of NADH using phosphoenolpyruvate (PEP) through the actions of pyruvate kinase (PK) and lactic dehydrogenase (LDH). The oxidation of NADH was monitored by following the decrease of absorbance at 340 nm (ε340=6.22 cm^−1 mM^−1) using a HP8452 spectrophotometer. Typical reaction solutions contained: […]; 0.15 mM NADH; 28 units of LDH/ml; 16 units of PK/ml; 3 mM DTT; 0.125 mM Syntide-2; 0.15 mM ATP; 25 mM MgCl2 in 50 mM TRIS, pH 7.5; and 400 mM NaCl. Assays were initiated with 10 nM of FL-CHK1. Ki values were determined by measuring initial enzyme activity in the presence of varying concentrations of test compounds. The data were analyzed using Enzyme Kinetic and Kaleidagraph software.

Test [2] concerns the target CDK2/Cyclin A complex (Homo sapiens, UniProt P24941). As to the kind of experiment: CDK2/Cyclin A assay. More on the design: CDK2^c: concentration or dose not given beside the values. The following applies: for CDK2^c: Table A combinatorial examples, footnote c not given. From the text:
CDK2/Cyclin A Construct for Assay: CDK2 was purified using published methodology (Rosenblatt et al., J. Mol. Biol., 230, 1317-1319 (1993)) from insect cells that had been infected with a baculovirus expression vector. Cyclin A was purified from E. coli cells expressing full-length recombinant cyclin A, and a truncated cyclin A construct was generated by limited proteolysis and purified as described previously (Jeffrey et al., Nature, 376, 313-320 (Jul. 27, 1995)).
CDK2/Cyclin A and CDK4/Cyclin D Assays
Cyclin-dependent kinase activity was measured by quantifying the enzyme-catalyzed, time-dependent incorporation of radioactive phosphate from [^32P]ATP into a recombinant fragment of the retinoblastoma protein. Unless noted otherwise, assays were performed in 96-well plates in a total volume of 50 μL, in the presence of 10 mM HEPES (N-[2-hydroxyethyl]piperazine-N′-[2-ethanesulfonic acid]) (pH 7.4), 10 mM MgCl2, 25 μM adenosine triphosphate (ATP), 1 mg/mL ovalbumin, 5 μg/mL leupeptin, 1 mM dithiothreitol, 10 mM β-glycerophosphate, 0.1 mM sodium vanadate, 1 mM sodium fluoride, 2.5 mM ethylene glycol-bis(β-aminoethyl ether)-N,N,N′N′-tetraacetic acid (EGTA), 2% (v/v) dimethylsulfoxide, and 0.03-0.2 μCi [^32P]ATP. The substrate (0.3-0.5 μg) was purified recombinant retinoblastoma protein fragment (Rb) (residues 386-928 of the native retinoblastoma protein; 62.3 kDa, containing the majority of the phosphorylation sites found in the native 106-kDa protein, as well as a tag of six histidine residues for ease of purification). Reactions were initiated with CDK2 (150 nM CDK2/Cyclin A complex) or CDK4 (50 nM CDK4/Cyclin D3 complex), incubated at 30° C., and terminated after 20 minutes by the addition of ethylenediaminetetraacetic acid EDTA) to 250 mM. The phosphorylated substrate was then captured on a nitrocellulose membrane using a 96-well filtration manifold, and unincorporated radioactivity was removed by repeated washing with 0.85% phosphoric acid. Radioactivity was quantified by exposing the dried nitrocellulose membranes to a phosphorimager. Apparent Ki values were measured by assaying enzyme activity in the presence of different compound concentrations and subtracting the background radioactivity measured in the absence of enzyme. The kinetic parameters (kcat, Km for ATP) were measured for each enzyme under the usual assay conditions by determining the dependence of initial rates on ATP concentration. The data were fit to an equation for competitive inhibition using Kaleidagraph (Synergy Software), or were fit to an equation for competitive tight-binding inhibition using the software KineTic (BioKin, Ltd.). Measured Ki values for known inhibitors against CDK4 and CDK2 agreed with published IC50 values. The specific activity of CDK4 was the same whether complexed to full-length cyclin D3 or the truncated Cyclin D3 construct; both complexes also yielded very similar Ki values for selected inhibitors.

Test [3] addresses T2, phosphorylated VEGF-R2Δ50 (FLVK-P) (Homo sapiens, UniProt P35968, DEL940-989/E990V).
T2 construct: VEGF-R2Δ50 contains residues 806-939 and 990-1171; made in house; host or cells: baculovirus/insect cells
Description: VEGF-R2 coupled spectrophotometric (FLVK-P) assay. Particulars: Table 3; at 1 μM. From the text: VEGF-R2 Construct for Assay: This construct determines the ability of a test compound to inhibit tyrosine kinase activity. A construct (VEGF-R2Δ50) of the cytosolic domain of human vascular endothelial growth factor receptor 2 (VEGF-R2) lacking the 50 central residues of the 68 residues of the kinase insert domain was expressed in a baculovirus/insect cell system. Of the 1356 residues of full-length VEGF-R2, VEGF-R2Δ50 contains residues 806-939 and 990-1171, and also one point mutation (E990V) within the kinase insert domain relative to wild-type VEGF-R2. Autophosphorylation of the purified construct was performed by incubation of the enzyme at a concentration of 4 μM in the presence of 3 mM ATP and 40 mM MgCl2 in 100 mM Hepes, pH 7.5, containing 5% glycerol and 5 mM DTT, at 4° C. for 2 h. […] See Parast et al., Biochemistry, 37, 16788-16801 (1998).
Coupled Spectrophotometric (FLVK-P) Assay
The production of ADP from ATP that accompanies phosphoryl transfer was coupled to oxidation of NADH using phosphoenolpyruvate (PEP) and a system having pyruvate kinase (PK) and lactic dehydrogenase (LDH). The oxidation of NADH was monitored by following the decrease of absorbance at 340 nm (e340=6.22 cm^−1 mM^−1) using a Beckman DU 650 spectrophotometer. Assay conditions for phosphorylated VEGF-R2Δ50 (indicated as FLVK-P in the tables below) were the following: 1 mM PEP; 250 μM NADH; 50 units of LDH/mL; 20 units of PK/mL; 5 mM DTT; 5.1 mM poly(E4Y1); 1 mM ATP; and 25 mM MgCl2 in 200 mM Hepes, pH 7.5. Assay conditions for unphosphorylated VEGF-R2Δ50 (indicated as FLVK in the tables) were the following: 1 mM PEP; 250 μM NADH; 50 units of LDH/mL; 20 units of PK/mL; 5 mM DTT; 20 mM poly(E4Y1); 3 mM ATP; and 60 mM MgCl2 and 2 mM MnCl2 in 200 mM Hepes, pH 7.5. Assays were initiated with 5 to 40 nM of enzyme. Ki values were determined by measuring enzyme activity in the presence of varying concentrations of test compounds. The data were analyzed using Enzyme Kinetic and Kaleidagraph software.

T2 sequence (P35968 with tags, fused parts or gaps DEL940-989/E990V limits assumed): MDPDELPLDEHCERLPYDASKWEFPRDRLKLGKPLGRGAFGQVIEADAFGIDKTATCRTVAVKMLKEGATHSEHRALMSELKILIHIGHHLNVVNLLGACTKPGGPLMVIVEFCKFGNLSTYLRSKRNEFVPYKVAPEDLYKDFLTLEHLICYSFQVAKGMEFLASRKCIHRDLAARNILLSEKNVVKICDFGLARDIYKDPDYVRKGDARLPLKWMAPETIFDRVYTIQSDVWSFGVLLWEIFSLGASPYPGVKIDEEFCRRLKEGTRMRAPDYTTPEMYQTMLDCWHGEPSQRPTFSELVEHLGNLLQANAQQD

For the compound `COc1cc(Nc2nc(N)c(-c3nc(-c4ccc5ccccc5c4)cs3)s2)cc2c1OCCO2`, the “CHK1^b” value in test [1] turned out to be 9.2. In addition, the “CDK2^c” value in test [2] was 11.6.
Take `COc1cc(Nc2nc(N)c(-c3nc(-c4cc(C)sc4C)cs3)s2)cc(OC)c1OC`: the “CHK1^b” value in test [1] was determined as 46.3. Also, the “CDK2^c” value in test [2] is given as 7.3.
Consider `COc1cc(Nc2nc(N)c(-c3nc(-c4ccc(C)cc4C)cs3)s2)cc(OC)c1OC`, for which the “CHK1^b” value in test [1] turned out to be 12. Besides, the “CDK2^c” value in test [2] is given as −1.2.
For the compound `COc1cc(Nc2nc(N)c(-c3nc(-c4ccc(CC(=O)O)s4)cs3)s2)cc(OC)c1OC`, the “CHK1^b” value in test [1] stood at 41.9. In test [2], the “CDK2^c” value is given as 26.7.
The matching figures for `COc1cc(Nc2nc(N)c(-c3nc(-c4cccc(OC(=O)c5ccccc5)c4)cs3)s2)cc(OC)c1OC`: 23.9 and −12.3.
As to `COc1cc(OC)c(-c2csc(-c3sc(Nc4cc(OC)c(OC)c(OC)c4)nc3N)n2)c(O)c1Cl`, the “CHK1^b” value in test [1] is listed as 56. Further, the “CDK2^c” value in test [2] is recorded as 11.8.
The corresponding values for `COc1cc(Nc2nc(N)c(-c3nc(-c4ccc5oc6ccccc6c5c4)cs3)s2)cc2c1OCCO2` are 34.1 and 19.
With `COc1cc(Nc2nc(N)c(-c3nc(-c4ccc5c(c4)C(C)(C)CCC5(C)C)cs3)s2)cc2c1OCCO2`, the “CHK1^b” value in test [1] amounted to 22.4. Also, the “CDK2^c” value in test [2] came out at 4.2.
Consider `COc1cc(Nc2nc(N)c(-c3nc(-c4ccc(C(F)(F)F)cc4)cs3)s2)cc(OC)c1OC`, for which, in test [1], the “CHK1^b” value was determined as 8.5. In addition, the “CDK2^c” value in test [2] is listed as 13.9.
With `COc1cc(Nc2nc(N)c(-c3nc(-c4ccc5c(c4)CCC(=O)N5)cs3)s2)cc2c1OCCO2`, the “CHK1^b” value in test [1] amounted to 31.9. The “CDK2^c” value in test [2] was −7.8.
The matching figures for `COc1cc(Nc2nc(N)c(-c3nc(-c4ccccc4OC(=O)c4ccccc4)cs3)s2)cc(OC)c1OC`: 0.5 and 4.6.
With `CCc1cc2c(cc1-c1csc(-c3sc(Nc4cc(OC)c5c(c4)OCCO5)nc3N)n1)C(C)(C)CCC2(C)C`, the “CHK1^b” value in test [1] is given as 10.4. Also, in test [2], the “CDK2^c” value is recorded as 13.8.
The matching figures for `COc1ccc2nc(-c3ccccc3)cc(-c3csc(-c4sc(Nc5cc(OC)c(OC)c(OC)c5)nc4N)n3)c2c1`: 21.6 and −2.7.
The corresponding values for `COc1cc(Nc2nc(N)c(-c3nc(-c4sc5ccccc5c4C)cs3)s2)cc2c1OCCO2` are 4.7 and 23.1.
With `COc1cc(Nc2nc(N)c(-c3nc(-c4cc(C(C)(C)C)c(O)c(C(C)(C)C)c4)cs3)s2)cc(OC)c1OC`, in test [1], the “CHK1^b” value was found to be 25.3. The “CDK2^c” value in test [2] was 5.3.
One may read the inhibition as the percentage by which the read-out fell short of the control. By Ki is commonly meant the dissociation constant of the complex between target and ligand, obtained from inhibition or displacement. Consider `Nc1nc(Nc2ccc(S(N)(=O)=O)cc2)sc1-c1nc(C(=O)O)cs1` [N(1)], for which testing at 1 µM in test [3] gave an inhibition of 24%. In test [1] (Table 3, at 25 μM), this compound registered an inhibition at 25 µM of less than 0%. In test [2] (Table 3), the Ki was 2.7 µM.
Regarding `COc1cc(Nc2nc(N)c(-c3nc(-c4ccc(O)c(O)c4)cs3)s2)cc(OC)c1OC` [drawing 325], in test [1], the “CHK1^b” value was found to be 47.7. Moreover, the “CDK2^c” value in test [2] is −10.3.
As for `COc1ccc(-c2csc(-c3sc(Nc4cc(OC)c(OC)c(OC)c4)nc3N)n2)cc1` [drawing 336], the “CHK1^b” value in test [1] came to 15.3. Besides, the “CDK2^c” value in test [2] is given as −13.
The matching figures for `COc1cc(Nc2nc(N)c(-c3nc(-c4ccc(O)cc4)cs3)s2)cc(OC)c1OC` [drawing 352]: 48.3 and 3.
In the case of `COc1cc(Nc2nc(N)c(-c3nc(-c4ccccc4)cs3)s2)cc(OC)c1OC` [drawing 358], the “CHK1^b” value in test [1] is listed as 21.1. Further, the “CDK2^c” value in test [2] was −0.2.
Regarding `COc1cc(Nc2nc(N)c(-c3nc(-c4sc5ccc(Cl)cc5c4C)cs3)s2)cc2c1OCCO2` [drawing 361], the “CHK1^b” value in test [1] was 48.7. The “CDK2^c” value in test [2] turned out to be 7.3.
Consider `COc1ccc(-c2csc(-c3sc(Nc4cc(OC)c(OC)c(OC)c4)nc3N)n2)cc1` [drawing 362], for which the “CHK1^b” value in test [1] stood at 29.4. The “CDK2^c” value in test [2] is given as 1.7.
`COc1cc(Nc2nc(N)c(-c3nc(-c4sc5ccc(Cl)cc5c4C)cs3)s2)cc2c1OCCO2` [drawing 363]: the “CHK1^b” value in test [1] is on record as 38.1. The “CDK2^c” value in test [2] worked out at 12.
Consider `COc1cc(Nc2nc(N)c(-c3nc(-c4ccccc4)cs3)s2)cc(OC)c1OC` [drawing 372], for which the “CHK1^b” value in test [1] was found to be 14.1. Besides, the “CDK2^c” value in test [2] was −1.
`COc1cc(Nc2nc(N)c(-c3nc(-c4ccc(F)cc4F)cs3)s2)cc(OC)c1OC` [drawing 382]: in test [1], the “CHK1^b” value is given as 32.5. In test [2], the “CDK2^c” value is listed as −12.1.
